Experiment [1] concerns the target T1, PARP15 (Homo sapiens, UniProt Q460N3).
T1 construct: made in house; host or cells: Sf9
T1 sequence (Q460N3 481-678): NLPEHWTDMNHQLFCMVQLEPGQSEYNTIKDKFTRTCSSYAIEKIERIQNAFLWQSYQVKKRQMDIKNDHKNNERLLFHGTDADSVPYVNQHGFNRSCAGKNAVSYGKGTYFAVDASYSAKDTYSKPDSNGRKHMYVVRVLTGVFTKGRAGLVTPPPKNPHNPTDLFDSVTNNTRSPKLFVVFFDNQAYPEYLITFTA
In words: In vitro TR-FRET probe displacement assay (Probe C), PARP15. Type of experiment: binding. The conditions noted are these: TR-FRET displacement of Probe C, PARP15 residues 481-678. The protocol: A portion of PARP15 (residues 481 to 678 of NP_689828.1 (SEQ ID NO: 5), GenBank Accession No. NM_152615) was overexpressed in Sf9 cells. An N-terminal fusion tag, […] (SEQ ID NO: 10), was used to purify the protein from cell lysates. The fusion tag was left on the protein for use in the probe displacement assay.
(§1) Displacement of a Probe C binding to monoPARP active sites was measured using a time-resolved fluorescence resonance energy transfer (TR-FRET) assay. 20 nL of a dose response curve of each test compound was spotted in black 384-well polystyrene proxiplates (Perkin Elmer) using a Mosquito (TTP Labtech). Reactions were performed in a 8 μL volume by adding 6 μL of the monoPARP and Probe C in assay buffer (20 mM HEPES pH=8, 100 mM NaCl, 0.1% bovine serum albumin, 2 mM DTT and 0.002% Tween20), incubating with test compound at 25° C. for 30 min, then adding 2 μL of ULight-streptavidin and LANCE Eu-W 1024 Anti-6×His (Perkin Elmer). Binding reactions were equilibrated at 25° C. for an additional 30 min, then read on an Envision platereader equipped with a LANCE/DELFIA top mirror (Perkin Elmer) using excitation of 320 nm and emission of 615 nm and […] with a 90 μs delay. The ratio of the 665/615 nm emission were calculated for each well to determine the amount of complex of monoPARP and Probe C in each well. […]
For orientation: TR-FRET usually uses a lanthanide donor and a delayed reading to cut background.

Experiment [2] has as its target T2, PARP10 (Homo sapiens, UniProt Q53GL7).
T2 sequence (Q53GL7 808-1025): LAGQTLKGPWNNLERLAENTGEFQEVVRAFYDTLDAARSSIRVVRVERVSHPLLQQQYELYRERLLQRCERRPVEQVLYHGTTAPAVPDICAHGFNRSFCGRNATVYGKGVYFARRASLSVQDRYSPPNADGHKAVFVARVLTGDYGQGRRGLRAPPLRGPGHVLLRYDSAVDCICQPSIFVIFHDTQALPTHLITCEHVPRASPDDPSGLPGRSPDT
Nature of the experiment: In vitro TR-FRET probe displacement assay (Probe C), PARP10. Type of experiment: binding. The arrangement: made in house; host or cells: E. coli. The settings on record: TR-FRET displacement of Probe C, PARP10 residues 808-1025. On the procedure: A portion of PARP10 (residues 808 to 1025 of NP_116178.2 (SEQ ID NO: 2), GenBank Accession No. NM_032789.4) was overexpressed in E. coli cells. An N-terminal fusion tag, MAHHHHHHENLYFQSM (SEQ ID NO: 8), was used to purify the protein from cell lysates. The fusion tag was left on the protein for use in the probe displacement assay.
as §1, with “performed in an 8 μL” for “performed in a 8 μL”, “μL of ULight-anti 6×His and LANCE” for “μL of ULight-streptavidin and LANCE”, “Eu-W 1024 labeled streptavidin (Perkin Elmer).” for “Eu-W 1024 Anti-6×His (Perkin Elmer).”

With `O=c1[nH]ncc(N2Cc3ccc(OC4CCNCC4)cc3C2)c1C(F)(F)F` [Compound A, 5-[5-(Piperidin-4-yloxy)-2,3-dihydro-1H-isoindol-2-yl]-4-(trifluoromethyl)-2,3-dihydropyridazin-3-one], the values for the IC50 in experiment [1] and in experiment [2] were 0.06 µM and 0.08 µM, respectively.

The values are drawn from patent publication US11293927B2, “Screening methods for PARP modulators” (Ribon Therapeutics, Inc., priority 2018, dated 2022).
